Values after ≈ are worked out from the molar mass of the structure shown. Values joined by “and” are separate entries in the source; they are usually repeats but may differ in a detail not shown here. Equal entries are not always repeated. Where two headings read alike, the source gives them in different places.

Data set [1] relates to P. aeruginosa ATCC 27853. The experiment in a line: microbe, parasite or virus in culture. It is filed as cell-based. The conditions noted are these: Pseudomonas aeruginosa, ATCC27853.
Data set [2] deals with B. pseudomallei. Description: microbe, parasite or virus in culture. It is filed as cell-based, Burkholderia pseudomallei. As to conditions: for MIC50 / MIC90: Burkholderia pseudomallei.
For data set [3], the system named is E. coli ATCC 25922. The experiment in a line: microbe, parasite or virus in culture. In kind it is cell-based. The conditions noted are these: Escherichia coli, ATCC25922.
Data set [4] concerns F. tularensis. The experiment in a line: microbe, parasite or virus in culture. In kind it is cell-based, Francisella tularensis.
The test system of data set [5] is B. anthracis. Description: microbe, parasite or virus in culture. It is filed as cell-based, Bacillus anthracis.
For data set [6], the system named is Y. pestis. The experiment in a line: microbe, parasite or virus in culture. In kind it is cell-based, Yersinia pestis.
The subject of data set [7] is B. mallei. The experiment in a line: microbe, parasite or virus in culture. In kind it is cell-based, Burkholderia mallei. As to conditions: for MIC50 / MIC90: Burkholderia mallei.
For data set [8], the target named is human Topo I (Homo sapiens, UniProt P11387). The experiment in a line: biochemical.
Sequence of human Topo I (P11387 whole entry): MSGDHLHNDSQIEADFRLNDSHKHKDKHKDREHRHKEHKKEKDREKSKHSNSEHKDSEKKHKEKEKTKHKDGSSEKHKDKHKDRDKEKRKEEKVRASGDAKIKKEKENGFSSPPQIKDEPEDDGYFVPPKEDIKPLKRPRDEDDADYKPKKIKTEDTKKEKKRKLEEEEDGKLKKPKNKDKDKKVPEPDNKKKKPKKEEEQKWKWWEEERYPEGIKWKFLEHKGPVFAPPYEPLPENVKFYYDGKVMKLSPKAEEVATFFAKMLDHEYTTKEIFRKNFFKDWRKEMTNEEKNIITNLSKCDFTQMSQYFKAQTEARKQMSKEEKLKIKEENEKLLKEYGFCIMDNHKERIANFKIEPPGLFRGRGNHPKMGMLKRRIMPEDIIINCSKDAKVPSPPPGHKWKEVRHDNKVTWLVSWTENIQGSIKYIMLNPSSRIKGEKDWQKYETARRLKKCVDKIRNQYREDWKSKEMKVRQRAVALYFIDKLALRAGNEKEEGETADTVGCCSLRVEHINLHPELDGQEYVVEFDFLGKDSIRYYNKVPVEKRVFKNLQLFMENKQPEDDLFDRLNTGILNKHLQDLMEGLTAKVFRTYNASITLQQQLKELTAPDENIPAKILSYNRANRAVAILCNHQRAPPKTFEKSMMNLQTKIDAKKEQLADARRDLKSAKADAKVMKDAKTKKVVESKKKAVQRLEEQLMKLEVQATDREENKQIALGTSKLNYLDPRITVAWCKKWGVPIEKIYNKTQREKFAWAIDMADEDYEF
Data set [9] deals with B. pseudomallei strain 1026b. Details: species or system BALB/c mice. The conditions noted are these: mouse, in vivo.
Data set [10] relates to B. pseudomallei 1026b-based efflux-proficient and -compromised strains. The experiment in a line: microbe, parasite or virus in culture. In kind it is cell-based. The conditions noted are these: Burkholderia pseudomallei, read-out: MIC under efflux by BpeEF-OprC.
For data set [11], the target named is E. coli Topo IV (Escherichia coli, UniProt P0AFI2+P20083). Description: biochemical.
Sequence of E. coli Topo IV (P0AFI2 whole entry): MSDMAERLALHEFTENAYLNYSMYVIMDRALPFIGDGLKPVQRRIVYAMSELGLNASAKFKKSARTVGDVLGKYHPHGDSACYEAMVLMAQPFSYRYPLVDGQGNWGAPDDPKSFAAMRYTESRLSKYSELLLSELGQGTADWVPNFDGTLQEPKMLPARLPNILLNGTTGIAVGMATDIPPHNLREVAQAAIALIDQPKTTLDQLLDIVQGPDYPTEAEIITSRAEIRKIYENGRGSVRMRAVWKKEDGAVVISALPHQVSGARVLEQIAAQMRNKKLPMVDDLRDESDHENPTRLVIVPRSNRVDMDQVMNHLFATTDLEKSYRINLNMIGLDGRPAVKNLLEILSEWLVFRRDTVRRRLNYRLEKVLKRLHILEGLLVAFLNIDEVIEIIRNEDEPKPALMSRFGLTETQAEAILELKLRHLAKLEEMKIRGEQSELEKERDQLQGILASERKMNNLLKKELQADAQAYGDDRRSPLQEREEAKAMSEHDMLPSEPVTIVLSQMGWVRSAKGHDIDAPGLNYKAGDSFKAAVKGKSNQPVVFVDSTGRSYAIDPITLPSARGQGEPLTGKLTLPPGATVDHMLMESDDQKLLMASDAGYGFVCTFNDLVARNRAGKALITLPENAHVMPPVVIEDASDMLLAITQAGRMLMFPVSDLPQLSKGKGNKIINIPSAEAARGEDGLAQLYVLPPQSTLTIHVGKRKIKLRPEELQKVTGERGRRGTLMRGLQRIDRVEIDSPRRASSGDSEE
Sequence of E. coli Topo IV (P20083 whole entry): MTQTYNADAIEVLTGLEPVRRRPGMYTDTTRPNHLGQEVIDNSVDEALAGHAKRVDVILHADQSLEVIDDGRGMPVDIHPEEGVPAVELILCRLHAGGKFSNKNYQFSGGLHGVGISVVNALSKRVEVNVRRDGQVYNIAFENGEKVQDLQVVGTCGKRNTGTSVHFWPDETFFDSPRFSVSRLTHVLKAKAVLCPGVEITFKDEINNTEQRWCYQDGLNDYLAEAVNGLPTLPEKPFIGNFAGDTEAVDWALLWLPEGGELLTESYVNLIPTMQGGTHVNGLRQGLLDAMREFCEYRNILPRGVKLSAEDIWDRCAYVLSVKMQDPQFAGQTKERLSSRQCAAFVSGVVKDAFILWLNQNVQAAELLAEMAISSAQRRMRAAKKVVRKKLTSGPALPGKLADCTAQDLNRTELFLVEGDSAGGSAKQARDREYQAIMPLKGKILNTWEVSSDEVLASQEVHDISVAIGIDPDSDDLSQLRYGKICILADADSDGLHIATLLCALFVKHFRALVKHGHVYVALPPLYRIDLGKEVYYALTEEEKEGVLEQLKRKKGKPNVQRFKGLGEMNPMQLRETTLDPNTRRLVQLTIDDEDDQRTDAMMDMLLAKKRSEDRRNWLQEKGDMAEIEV
The conditions of data set [12]: not told.
For data set [13], the target named is S. aureus Topo IV (Staphylococcus aureus, UniProt P0C1S7+P0C1U9). Description: biochemical.
Data set [14] addresses E. coli DNA gyrase (Escherichia coli, UniProt P0AES4+P0AES6). Description: biochemical.
Data set [15] has as its target Quinolone-resistant E. coli gyrase (Escherichia coli, UniProt P0AES4+P0AES6). It is filed as biochemical. The conditions noted are these: read-out: IC50, E. coli quinolone-resistant gyrase.
In data set [16] the test system is B. pseudomallei strain 1026b. It is filed as cell-based, Burkholderia pseudomallei.
In data set [17] the target is S. aureus DNA gyrase (Staphylococcus aureus, UniProt P0A0K8+P20831). Description: biochemical.
The test system of data set [18] is intracellular B. pseudomallei 1026b. Description: microbe, parasite or virus in culture. In kind it is cell-based, Burkholderia pseudomallei.
Data set [19] concerns B. pseudomallei strain 1026b. Details: species or system BALB/c mice. As to conditions: mouse, in vivo. This is another data set of the same source.
Data set [20] has as its system intracellular B. pseudomallei 1026b. The conditions noted are these: cited from earlier work.

The molecule `C[C@H]1c2cccc(O)c2C(=O)C2=C(O)[C@]3(O)C(=O)C(C(N)=O)=C(O)[C@@H](N(C)C)[C@@H]3[C@@H](O)[C@@H]21` [Doxycycline, doxycycline] came in with an MIC in data set [1] of over 16 µg/mL. In data set [2], this molecule came in with an MIC range of at most 0.06 to 32 µg/mL, an MIC50 of 0.5 µg/mL (≈ 1.13 µM) and an MIC90 of 4 µg/mL (≈ 9 µM). In addition, the MIC in [3] came out at 1 µg/mL (≈ 2.25 µM).

`N#Cc1c(N2C[C@@H]3NCCO[C@H]3C2)c(F)cc2c(=O)c(C(=O)O)cn(C3CC3)c12` [Finafloxacin, finafloxacin, reference compound]: the “MIC 50%” value was at most 4 ng/mL in data set [4]; 0.06 µg/mL (≈ 0.151 µM) in data set [5]; 0.06 µg/mL (≈ 0.151 µM) in data set [6]; 4 µg/mL (≈ 10 µM) in data set [2]; 0.25 µg/mL (≈ 0.628 µM) in [7]. The “MIC 90%” value in data set [4] stood at 8 ng/mL (≈ 0.0201 µM); in data set [5], 0.12 µg/mL (≈ 0.301 µM); in data set [6] it was 0.12 µg/mL (≈ 0.301 µM); in [2], 8 µg/mL (≈ 20.1 µM); in data set [7], 2 µg/mL (≈ 5.02 µM). Moreover, the MIC range in data set [4] is at most 4 to 120 ng/mL; in data set [5] it was 0.03 to 0.12 µg/mL; in data set [6], 15 to 250 ng/mL; in data set [7], 0.015 to 2 µg/mL.

With `O=C(O)c1cn(C2CC2)c2cc(N3CCNCC3)c(F)cc2c1=O` [Ciprofloxacin, ciprofloxacin], the values for the MIC in data set [1] and in data set [3] were 0.25 µg/mL (≈ 0.754 µM) and at most 0.008 µg/mL, respectively. In data set [8], the IC50 was over 100 µM.

With `Cc1c(-c2cc(F)c(N)cc2F)ccn2c(=O)c(C(=O)O)cc(C3CC3)c12` [GC-072], the MIC range was at most 0.5 to 15 ng/mL in data set [4]; at most 0.0005 to 0.004 µg/mL in data set [5]; 2 to 30 ng/mL in [6]; at most 0.008 to 1 µg/mL in [2]; at most 0.004 to 0.5 µg/mL in data set [7]. The MIC50 in data set [4] (Francisella tularensis) is at most 0.5 ng/mL; in data set [5] (Bacillus anthracis), 1 ng/mL (≈ 0.0027 µM); in data set [6] (Yersinia pestis), 8 ng/mL (≈ 0.0216 µM); in [2] it was 0.12 µg/mL (≈ 0.324 µM); in data set [7] it was 0.015 µg/mL (≈ 0.0405 µM). For the same molecule, the MIC90 in data set [4] (Francisella tularensis) was at most 0.5 ng/mL; in data set [5] (Bacillus anthracis), 2 ng/mL (≈ 0.0054 µM); in data set [6] (Yersinia pestis), 0.015 µg/mL (≈ 0.0405 µM); in [2] it was 0.25 µg/mL (≈ 0.675 µM); in data set [7] it was 0.12 µg/mL (≈ 0.324 µM). For the same molecule, the MIC is 1 µg/mL (≈ 2.7 µM) in data set [1]; 0.5 to 1 µg/mL (≈ 1.35 to 2.7 µM) in [10]; at most 0.004 µg/mL in data set [3]; 0.25 µg/mL (≈ 0.675 µM) in [18] (Burkholderia pseudomallei, read-out: MIC for B. pseudomallei strain 1026b measured for the intracellular experiment). In addition, the “animals that survived to the end of the experiment” value in [9] is recorded as “four”. The median survival time in data set [9] was 4.5 days and 4.75 days and 5.63 days. For the same molecule, in data set [9], the “overall survival rate of the treated groups” value was 87%. Also, the survival in [9] is 90% and 80%. The IC50 in data set [11] is 4.22 to 8.45 µM; in [13] it was 4 to 30 µM; in data set [14], 180 to 1500 nM; in data set [15] it was 1300 to 1500 nM; in [8] it was over 100 µM; in data set [17] it was 2000 nM. Besides, in data set [12], the permeability entry is reported as “good”. In data set [2], the “share of strains with MICs higher than 0.5 μg/ml” value is reported as 7%. For the same molecule, the “MIC for B. pseudomallei 1026b (time-kill study)” value in data set [16] stood at 0.125 µg/mL. In addition, the “share of the full killing effect observed within 5 h” value in data set [16] is recorded as “more than 75%”. The “viable intracellular bacteria 24 h after initiation of treatment” value in data set [18] is reported as “no viable bacteria detectable”.

On to `CC(C)(O/N=C(\C(=O)N[C@@H]1C(=O)N2C(C(=O)[O-])=C(C[n+]3ccccc3)CS[C@H]12)c1csc(N)n1)C(=O)O` [Ceftazidime, ceftazidime], for which the MIC in data set [1] came out at 4 µg/mL (≈ 7.32 µM); in [3], 0.25 µg/mL (≈ 0.457 µM). Moreover, the survival in data set [19] was determined as 100%. The “effect on intracellular survival of B. pseudomallei in macrophages” value in [20] is given as “no effect”. In data set [2], this molecule yielded an MIC50 of 1 µg/mL (≈ 1.83 µM). In data set [2], this molecule registered an MIC90 of 64 µg/mL (≈ 117 µM).

Regarding `C[C@@H](O)[C@H]1C(=O)N2C(C(=O)O)=C(S[C@@H]3CN[C@H](C(=O)N(C)C)C3)[C@H](C)[C@H]12` [Meropenem, meropenem], in data set [2], the MIC range was at most 0.06 to 4 µg/mL, the MIC50 is 0.5 µg/mL (≈ 1.3 µM) and the MIC90 worked out at 1 µg/mL (≈ 2.61 µM).

In data set [7], `CC[C@H]1OC(=O)[C@H](C)[C@@H](O[C@H]2C[C@@](C)(OC)[C@@H](O)[C@H](C)O2)[C@H](C)[C@@H](O[C@@H]2O[C@H](C)C[C@H](N(C)C)[C@H]2O)[C@](C)(O)C[C@@H](C)CN(C)[C@H](C)[C@@H](O)[C@]1(C)O` [Azithromycin] returned an MIC range of 0.12 to 1 µg/mL, an MIC50 of 0.5 µg/mL (≈ 0.668 µM) and an MIC90 of 0.5 µg/mL (≈ 0.668 µM).
